Test results: ChEMBL document CHEMBL1201862, “PubChem BioAssay data set” (2004)
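A five-concentration, 48-hour dose response in 96-well plates underlies each endpoint, interpolated linearly between surrounding concentrations. Here, GI50 denotes the concentration required for 50% inhibition of growth.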 Active and inactive are the calls of the source. Rule as the data show it: active = GI50 up to about 1.1 µM and inactive = higher.

What was measured:
Assay in all cases: DTP human tumour cell line panel, 48 h
[1] = system: SK-OV-3
[2] = system: MDA-MB-231
[3] = system: 786-0
[4] = system: NCI-H522
[5] = system: EKVX
[6] = system: OVCAR-4
[7] = system: SW-620
[8] = system: HCT-15
[9] = system: SF-268
[10] = system: RPMI-8226
[11] = system: NCI-H226
[12] = system: OVCAR-5
[13] = system: K562
[14] = system: HT-29
[15] = system: UACC-62
[16] = system: MCF7
[17] = system: SK-MEL-28
[18] = system: DU-145
[19] = system: OVCAR-3
[20] = system: XF498

| SMILES | GI50 [1] | GI50 [2] | GI50 [3] | GI50 [4] | GI50 [5] | GI50 [6] | GI50 [7] | GI50 [8] [µM] | GI50 [9] | GI50 [10] | GI50 [11] | GI50 [12] | GI50 [13] | GI50 [14] | GI50 [15] | GI50 [16] | GI50 [17] | GI50 [18] | GI50 [19] | GI50 [20] |
| --- | --- | --- | --- | --- | --- | --- | --- | --- | --- | --- | --- | --- | --- | --- | --- | --- | --- | --- | --- | --- |
| O=C(/C=C/c1ccc2c(c1)OCO2)CC(=O)/C=C/c1ccc2c(c1)OCO2 | > 100 µM (inactive) | 34.6 µM (inactive) | 49.8 µM (inactive) | 45 µM (inactive) | 64 µM (inactive) | 19.1 µM (inactive) | > 100 µM (inactive) | > 100 | > 10 µM (inactive) | > 100 µM (inactive) | > 100 µM (inactive) | > 100 µM (inactive) | 80.2 µM (inactive) | > 100 µM (inactive) | > 100 µM (inactive) | 77.4 µM (inactive) | > 10 µM (inactive) | > 10 µM (inactive) | 27.1 µM (inactive) | – |
| COc1nc2ncc([C@@H](OC(C)=O)[C@@H](COC(C)=O)OC(C)=O)nc2c(=O)n1C | > 100 µM (inactive) | > 100 µM (inactive) | > 100 µM (inactive) | 57.5 µM (inactive) | > 100 µM (inactive) | 48 µM (inactive) | > 100 µM (inactive) | > 100 | > 100 µM (inactive) | 96.8 µM (inactive) | > 100 µM (inactive) | > 100 µM (inactive) | > 100 µM (inactive) | > 100 µM (inactive) | > 100 µM (inactive) | > 100 µM (inactive) | > 100 µM (inactive) | > 100 µM (inactive) | > 100 µM (inactive) | – |
| CC(=O)Oc1cccc2c1C(=O)c1c(OC(C)=O)cc(C)cc1C2=O | 34 µM (inactive) | 43 µM (inactive) | 20.4 µM (inactive) | 12.2 µM (inactive) | 24.4 µM (inactive) | 27.7 µM (inactive) | 37 µM (inactive) | 40.6 | 62.8 µM (inactive) | 12.6 µM (inactive) | > 100 µM (inactive) | > 100 µM (inactive) | 29 µM (inactive) | 39.6 µM (inactive) | 32.7 µM (inactive) | 46 µM (inactive) | 27.9 µM (inactive) | 56.6 µM (inactive) | 16.4 µM (inactive) | – |
| CC1(C)OC2OC(COC(=O)C=[N+]=[N-])C3OC(C)(C)OC3C2O1 (stereo not drawn) | > 100 µM (inactive) | > 100 µM (inactive) | > 100 µM (inactive) | > 100 µM (inactive) | > 100 µM (inactive) | > 100 µM (inactive) | > 100 µM (inactive) | > 100 | > 100 µM (inactive) | > 100 µM (inactive) | > 100 µM (inactive) | > 100 µM (inactive) | > 100 µM (inactive) | > 100 µM (inactive) | > 100 µM (inactive) | > 100 µM (inactive) | > 100 µM (inactive) | > 100 µM (inactive) | > 100 µM (inactive) | – |
| Cn1c2ccccc2n2c3ccccc3c(=O)c(C#N)c12 | 27.3 µM (inactive) | 13.9 µM (inactive) | 6.01 µM (inactive) | 4.29 µM (inactive) | 18.7 µM (inactive) | > 100 µM (inactive) | 4.62 µM (inactive) | 6.62 | 10.4 µM (inactive) | 3.44 µM (inactive) | 2.68 µM (inactive) | > 70 µM (inactive) | 9.79 µM (inactive) | 4.53 µM (inactive) | 8.11 µM (inactive) | 10.1 µM (inactive) | > 83.4 µM (inactive) | 12.6 µM (inactive) | > 100 µM (inactive) | – |
| COc1cc(/C=C/c2cc(=O)cc(/C=C/c3ccc(O)c(OC)c3)o2)ccc1O | 76.4 µM (inactive) | 26.4 µM (inactive) | 23.3 µM (inactive) | 9.79 µM (inactive) | > 70 µM (inactive) | 16.4 µM (inactive) | > 35.5 µM (inactive) | 60.4 | 38 µM (inactive) | 1.1 µM (active) | 29.3 µM (inactive) | > 100 µM (inactive) | > 21 µM (inactive) | > 80.4 µM (inactive) | 44.1 µM (inactive) | 6.27 µM (inactive) | > 100 µM (inactive) | 31 µM (inactive) | 76.4 µM (inactive) | – |
| O=C(c1c(F)c(F)c(F)c(F)c1F)n1c(O)nc2ccccc21 | 15.4 µM (inactive) | 12.2 µM (inactive) | 10.8 µM (inactive) | 5.9 µM (inactive) | 13.9 µM (inactive) | 13.3 µM (inactive) | 4.91 µM (inactive) | 5.06 | 14.7 µM (inactive) | 3.03 µM (inactive) | 17.3 µM (inactive) | 15.7 µM (inactive) | 3.51 µM (inactive) | 6.28 µM (inactive) | 12.1 µM (inactive) | 4.04 µM (inactive) | 15 µM (inactive) | 15.7 µM (inactive) | 9.77 µM (inactive) | – |
| CSC1=NN(C(C)=O)C(C(OC(C)=O)C(OC(C)=O)C(OC(C)=O)C(COC(C)=O)OC(C)=O)S1 (stereo not drawn) | > 100 µM (inactive) | > 100 µM (inactive) | > 100 µM (inactive) | > 100 µM (inactive) | > 100 µM (inactive) | > 100 µM (inactive) | > 100 µM (inactive) | > 100 | > 100 µM (inactive) | > 100 µM (inactive) | > 100 µM (inactive) | > 100 µM (inactive) | > 100 µM (inactive) | > 100 µM (inactive) | > 100 µM (inactive) | > 100 µM (inactive) | > 100 µM (inactive) | > 100 µM (inactive) | > 100 µM (inactive) | – |
| COc1ccc(CCNC(=O)CCc2ccccc2CO)cc1OC | > 100 µM (inactive) | > 100 µM (inactive) | > 100 µM (inactive) | > 100 µM (inactive) | > 100 µM (inactive) | > 100 µM (inactive) | > 100 µM (inactive) | > 100 | > 100 µM (inactive) | > 100 µM (inactive) | > 100 µM (inactive) | > 100 µM (inactive) | > 100 µM (inactive) | > 100 µM (inactive) | > 100 µM (inactive) | > 100 µM (inactive) | > 100 µM (inactive) | > 100 µM (inactive) | > 100 µM (inactive) | – |
| NC(=O)c1nc[nH]c1/N=N/SCC(N)C(=O)O (stereo not drawn) | 2.88 µM (inactive) | 6.04 µM (inactive) | 19.4 µM (inactive) | > 68.7 µM (inactive) | > 75.7 µM (inactive) | 11.3 µM (inactive) | 16.4 µM (inactive) | 43.2 | 10.7 µM (inactive) | 6.24 µM (inactive) | > 44.8 µM (inactive) | > 94 µM (inactive) | 2.01 µM (inactive) | > 100 µM (inactive) | 6.31 µM (inactive) | 97.7 µM (inactive) | > 100 µM (inactive) | 5.11 µM (inactive) | 19.1 µM (inactive) | – |
| CO/C(=N\N=C\c1cccc(C(F)(F)F)c1)c1ccncc1 | 6.89 µM (inactive) | 7.14 µM (inactive) | 5.77 µM (inactive) | 5.45 µM (inactive) | 13.8 µM (inactive) | 41 µM (inactive) | 4.6 µM (inactive) | 2.45 | 8.05 µM (inactive) | 2.37 µM (inactive) | 3.56 µM (inactive) | 32.5 µM (inactive) | 3.94 µM (inactive) | 4.62 µM (inactive) | 4.28 µM (inactive) | 2.52 µM (inactive) | 24.3 µM (inactive) | 7.85 µM (inactive) | 10.7 µM (inactive) | – |
| CCOP(=O)(O)C(Nc1ccc(/N=N/c2ccccc2)cc1)c1ccc(C(Nc2ccc(/N=N/c3ccccc3)cc2)P(=O)(O)OCC)cc1 (stereo not drawn) | 18.7 µM (inactive) | 30 µM (inactive) | 26.8 µM (inactive) | 18.6 µM (inactive) | 18.7 µM (inactive) | 42.8 µM (inactive) | 16.7 µM (inactive) | 19.7 | 20.4 µM (inactive) | 23.7 µM (inactive) | 40.3 µM (inactive) | 22.4 µM (inactive) | 19.6 µM (inactive) | 18.3 µM (inactive) | 19.2 µM (inactive) | 48.3 µM (inactive) | 19.2 µM (inactive) | > 100 µM (inactive) | 75.7 µM (inactive) | – |
| O=C(/C=C/c1ccccc1O)CC(=O)/C=C/c1ccccc1O | > 10 µM (inactive) | > 10 µM (inactive) | 4.21 µM (inactive) | 3.72 µM (inactive) | 13.3 µM (inactive) | 15.1 µM (inactive) | 4.51 µM (inactive) | 3.64 | > 10 µM (inactive) | 2.93 µM (inactive) | > 10 µM (inactive) | > 10 µM (inactive) | 3.82 µM (inactive) | 1.84 µM (inactive) | 4.93 µM (inactive) | 4.14 µM (inactive) | 12.8 µM (inactive) | 14.5 µM (inactive) | 3.82 µM (inactive) | – |
| Nc1nc(=O)[nH]c2c1cnn2C1CCCCO1 (stereo not drawn) | – | – | – | – | > 100 µM (inactive) | > 100 µM (inactive) | > 100 µM (inactive) | > 100 | > 100 µM (inactive) | > 100 µM (inactive) | 39.3 µM (inactive) | 64 µM (inactive) | > 100 µM (inactive) | > 100 µM (inactive) | – | – | > 100 µM (inactive) | – | – | > 100 µM (inactive) |
| C[C@@H]1C[C@H]2CC[C@H](O2)[C@H](C)C(=O)O[C@@H](C)C[C@@H]2CC[C@@H](O2)[C@@H](C)C(=O)O[C@H](C)C[C@H]2CC[C@H](O2)[C@H](C)C(=O)O[C@@H](C)C[C@@H]2CC[C@@H](O2)[C@@H](C)C(=O)O1 | 0.2 µM (active) | 0.345 µM (active) | 0.445 µM (active) | 0.211 µM (active) | 0.283 µM (active) | 0.136 µM (active) | 0.349 µM (active) | 0.646 | 0.316 µM (active) | 0.0769 µM (active) | 0.436 µM (active) | 0.568 µM (active) | 0.228 µM (active) | 0.237 µM (active) | 0.351 µM (active) | 0.326 µM (active) | 1.96 µM (inactive) | 1.43 µM (inactive) | 0.073 µM (active) | – |
